Measurements taken from paper PMC7766132, “N-Terminal Tagging with GFP Enhances Selectivity of Agitoxin 2 to Kv1.3-Channel Binding Site” (Toxins, 2020).

How the values were obtained:
[1] = tested on: KcsA-Kv1.3; assay: Competitive displacement of GFP-L2-AgTx2 from KcsA-Kv1.3 on spheroplasts; assay type: binding; conditions: for Displacement of GFP-L2-AgTx2 from complexes with KcsA-Kv1.3 (in words) / Concentration range of competition with GFP-L2-AgTx2 for KcsA-Kv1.3: GFP-L2-AgTx2 20 nM; for Displacement of GFP-L2-AgTx2 from complexes with KcsA-Kv1.3 (in words) / Kd: 2 h, 37 °C; for Displacement of GFP-L2-AgTx2 from complexes with KcsA-Kv1.3 (in words): Figure 2D; for Kd: fluorescent ligand GFP-L2-AgTx2 20 nM, Kap = IC50/(1 + [L]/[Kd]), mean ± SEM, n = 3, read-out: Apparent dissociation constant Kap of peptide blocker – Kv1.3-binding site complexes; for Concentration range of competition with GFP-L2-AgTx2 for KcsA-Kv1.3: titration, Figure 3E
[2] = biological target: KcsA-Kv1.3; assay: Competitive displacement of His6-GFP-L2-AgTx2 from KcsA-Kv1.3 on spheroplasts; assay type: binding; conditions: for Kd: fluorescent ligand His6-GFP-L2-AgTx2 20 nM, 2 h, 37 °C, Kap = IC50/(1 + [L]/[Kd]), mean ± SEM, n = 3, read-out: Apparent dissociation constant Kap of peptide blocker – Kv1.3-binding site complexes; for Concentration range of competition with His6-GFP-L2-AgTx2 for KcsA-Kv1.3: titration, His6-GFP-L2-AgTx2 20 nM, Figure 3F
[3] = tested on: KcsA-Kv1.1; assay: Competitive displacement of AgTx2-L3-GFP from KcsA-Kv1.1 on spheroplasts; assay type: binding; conditions: AgTx2-L3-GFP 20 nM; Figure 4
[4] = tested on: KcsA-Kv1.3; assay: Competitive displacement of AgTx2-L3-GFP from KcsA-Kv1.3 on spheroplasts; assay type: binding; conditions: AgTx2-L3-GFP 20 nM; Figure 4
[5] = tested on: KcsA-Kv1.6; assay: Competitive displacement of AgTx2-L3-GFP from KcsA-Kv1.6 on spheroplasts; assay type: binding; conditions: AgTx2-L3-GFP 20 nM; Figure 4
[6] = tested on: mKate2-hKv1.3-del; assay: Competitive displacement of GFP-L2-AgTx2 from mKate2-hKv1.3-del on HEK293 cells; assay type: cell-based, human; conditions: GFP-L2-AgTx2 40 nM, AgTx2 400 nM, 40 min
Excerpt: KCNA3 gene encoding human Kv1.3 (hKv1.3, Accession number NP_002223.3) was a generous gift from Dr. A. Vassilevski. The gene was amplified using primers KCNA3-del-f1 and KCNA3-r1 (Table 2) to obtain KCNA3-del gene encoding N-terminally truncated protein, in which residues M1 through D52 were deleted. The truncated gene was inserted into BglII/HindIII sites of pmKate2-C plasmid (Evrogen, Moscow, Russia) to obtain the resulting plasmid pmKate2-KCNA3-del, which was further used for transfection of HEK293T cells. In the hybrid protein, mKate2-hKv1.3-del, mKate2 was linked to the N-terminus of the hKv1.3-del channel through the 9-aa flexible linker. […]
HEK 293 cells (from the collection of the Institute of Cytology RAS) were grown (37 °C, 5% CO2) in DMEM/F12 (Paneco, Russia) containing 5% fetal bovine serum (FBS, HyClone, Utah, USA) and 2 mM L-glutamine. […] Competitive binding was assessed by incubating cells with GFP-L2-AgTx2 (40 nM) and AgTx2 (400 nM) for 40 min. […]
Experiments with HEK293 cells were performed with a laser scanning confocal microscope Leica-SP2 (Leica Microsystems GmbH, Wetzlar, Germany). […] Fluorescence of GFP-tagged AgTx2 was excited at the 488 nm wavelength and recorded in the 495–535 nm range. Fluorescence of mKate2-hKv1.3 was excited at the 561 nm wavelength and recorded in the 650–700 nm range.

[7] = tested on: Kv1.1; conditions: cited from earlier work
Excerpt: (§1) AgTx2 was successfully used in the form of a fluorescently labeled peptide (either RFP-AgTx2, or AgTx2 chemically labeled with tetramethylrhodamine, R-AgTx2) to probe binding affinities of various peptide toxins to different Kv1 channels. Extending color variety of AgTx2-based FP-Tx, we report here on the design of GFP-tagged AgTx2. Ability of GFP-tagged AgTx2 to interact with the pore blocker bi ... || To clarify the structural basis of the advanced selectivity of GFP-L2-AgTx2, a homologous GFP-L1-AgTx2 ligand was produced, in which the 45-aminoacid L1 linker was used instead of the L2 linker (Figure 1A). […] Fusion of AgTx2 with GFP was performed using the 20-aa glycine-rich L3 linker, whose sequence was similar to the L2 linker.

[8] = tested on: Kv1.6; conditions: cited from earlier work
Excerpt: as §1

[9] = tested on: Kv1.3; conditions: cited from earlier work
Excerpt: AgTx2 was successfully used in the form of a fluorescently labeled peptide (either RFP-AgTx2, or AgTx2 chemically labeled with tetramethylrhodamine, R-AgTx2) to probe binding affinities of various peptide toxins to different Kv1 channels. Extending color variety of AgTx2-based FP-Tx, we report here on the design of GFP-tagged AgTx2. Ability of GFP-tagged AgTx2 to interact with the pore blocker bi ... || To verify specificity of GFP-L2-AgTx2 interaction with the Kv1.3 binding site on the surface of KcsA-Kv1.3-presenting spheroplasts, we have studied the effect of well-known potassium channel peptide blockers on this interaction (Figure 2D). […] Scillato ... || To clarify the structural basis of the advanced selectivity of GFP-L2-AgTx2, a homologous GFP-L1-AgTx2 ligand was produced, in which the 45-aminoacid L1 linker was used instead of the L2 linker (Figure 1A).

[10] = tested on: Kv1.2; conditions: cited from earlier work
Excerpt: Several fluorescently labeled peptide toxins were produced by chemical synthesis using reactive fluorescent organic dyes. The procedures are usually laborious, and the yields of the labeled products are often low. As an alternative, genetically encoded fluorescent protein-scorpion toxin chimeras (FP-Tx), which are the polypeptide ligands of potassium voltage-gated Kv1-channels were recently developed. […] AgTx2 was successfully used in the form of a fluorescently labeled peptide (either RFP-AgTx2, or AgTx2 chemically labeled with tetramethylrhodamine, R-AgTx2) to probe binding affinities of various peptide toxins to different Kv1 channels. Extending color variety of AgTx2-based FP-Tx, we report here on the design of GFP-tagged AgTx2. Ability of GFP-tagged AgTx2 to interact with the pore blocker bi ...

[11] = tested on: KCa2.3; conditions: known pharmacology, no reference given; cited from earlier work
[12] = tested on: mKate2-hKv1.3-del; conditions: transient expression; cited from earlier work
Excerpt: In the following experiments we have verified, if AgTx2-L2-GFP, His6-AgTx2-L2-GFP and GFP-L1-AgTx2 can be used as fluorescent probes of Kv1.3 channels on the membrane of eukaryotic cells. Recently, we have designed a plasmid that encoded the fluorescently labeled human Kv1.3 channel (mKate2-hKv1.3-del) with enhanced presentation on the membrane of eukaryotic cells. […] Previously, the ...

Molecule	Displacement of GFP-L2-AgTx2 from complexes with KcsA-Kv1.3 (in words) [1]	Kd [1]	Concentration range of competition with GFP-L2-AgTx2 for KcsA-Kv1.3 [1]	Kd [2]	Concentration range of competition with His6-GFP-L2-AgTx2 for KcsA-Kv1.3 [2]	Displacement of AgTx2-L3-GFP from complexes with KcsA-Kv1.1 (in words) [3]	Displacement of AgTx2-L3-GFP from complexes with KcsA-Kv1.3 (in words) [4]	Displacement of AgTx2-L3-GFP from complexes with KcsA-Kv1.6 (in words) [5]	Displacement of GFP-L2-AgTx2 from mKate2-hKv1.3-del at the cell membrane (in words) [6]	Affinity to Kv1.1 (in words) [7]	Affinity to Kv1.6 (in words) [8]	Affinity to Kv1.3 (in words) [9]	Selectivity for Kv1.3 over Kv1.1 and Kv1.6 channels [9]	Affinity to Kv1.2 (in words) [10]	Interaction with Kv1.3 channel (in words) ([9]; known pharmacology, no reference given)	Pore block of KCa2.3 channel (in words) [11]	Affinity to Kv1.3 channels (in words) [9]	Binding to mKate2-hKv1.3-del in eukaryotic cells (in words) [12]
CC[C@H](C)[C@@H]1NC(=O)[C@@H]2CSSC[C@@H]3NC(=O)[C@H](CCCCN)NC(=O)[C@H](CCCNC(=N)N)NC(=O)[C@H](CC(N)=O)NC(=O)[C@H](CCSC)NC(=O)[C@H](CSSC[C@H](NC(=O)[C@H](CO)NC(=O)[C@@H](NC(=O)[C@H](CC(N)=O)NC(=O)[C@@H](NC(=O)[C@@H]4CCCN4C(=O)[C@@H](NC(=O)CN)C(C)C)[C@@H](C)CC)C(C)C)C(=O)N[C@@H]([C@@H](C)O)C(=O)NCC(=O)N[C@@H](CO)C(=O)N4CCC[C@H]4C(=O)N[C@@H](CCC(N)=O)C(=O)N2)NC(=O)[C@H](CCCCN)NC(=O)CNC(=O)[C@H](Cc2ccccc2)NC(=O)[C@H](CCCNC(=N)N)NC(=O)[C@H](CCSC)NC(=O)CNC(=O)[C@H](C)NC(=O)[C@H](CC(=O)O)NC(=O)[C@H](CCCCN)NC(=O)[C@H](CSSC[C@@H](C(=O)N[C@H](C(=O)N2CCC[C@H]2C(=O)N[C@@H](CCCCN)C(=O)O)[C@@H](C)O)NC(=O)[C@H](Cc2c[nH]cn2)NC3=O)NC(=O)[C@@H]2CCCN2C(=O)[C@H](CCCCN)NC1=O [AgTx2, agitoxin 2]	low nanomolar	230 ± 50 pM	nanomolar concentration range	70 ± 4 pM	nanomolar concentration range	readily displaced	readily displaced	readily displaced	displaced totally	sub-nanomolar affinity	sub-nanomolar affinity	sub-nanomolar affinity	ca. tenfold	nanomolar affinity	–	–	–	–
Scillatoxin [ScTx]	did not affect GFP-L2-AgTx2 binding to KcsA-Kv1.3	–	–	–	–	did not compete	did not compete	did not compete	–	–	–	–	–	–	no ability to interact with Kv1.3 channel	pore blocker of KCa2.3 channel	–	–
CC[C@H](C)[C@H](NC(=O)[C@H](CCC(=O)O)NC(=O)[C@@H](NC(=O)CN)C(C)C)C(=O)N[C@@H](CC(N)=O)C(=O)N[C@H](C(=O)N[C@@H](CCCCN)C(=O)N[C@H]1CSSC[C@@H]2NC(=O)[C@H](CCCCN)NC(=O)CNC(=O)[C@H](Cc3ccccc3)NC(=O)[C@H](CCCNC(=N)N)NC(=O)[C@H](CCSC)NC(=O)CNC(=O)[C@H](C)NC(=O)[C@H](CC(=O)O)NC(=O)[C@H](CCCCN)NC(=O)[C@@H]3CSSC[C@@H](C(=O)N[C@H](C(=O)N4CCC[C@H]4C(=O)N[C@@H](CCCCN)C(=O)O)[C@@H](C)O)NC(=O)[C@H](Cc4c[nH]cn4)NC(=O)[C@H](CSSC[C@H](NC(=O)[C@H](CCC(N)=O)NC(=O)[C@@H]4CCCN4C(=O)[C@H](CO)NC(=O)CNC(=O)[C@H](CO)NC1=O)C(=O)N[C@@H](CC(C)C)C(=O)N[C@@H](CCCCN)C(=O)N1CCC[C@H]1C(=O)N3)NC(=O)[C@H](CCCCN)NC(=O)[C@H](CCCNC(=N)N)NC(=O)[C@H](CC(N)=O)NC(=O)[C@H](CCSC)NC2=O)C(C)C [KTx1, kaliotoxin 1]	low nanomolar	100 ± 40 pM	nanomolar concentration range	71 ± 7 pM	nanomolar concentration range	readily displaced	readily displaced	readily displaced	–	–	–	–	–	–	–	–	–	–
Hetlaxin [HeTx]	low micromolar concentrations	39000 pM	higher concentrations	45000 pM	higher concentrations	–	–	–	–	–	–	–	–	–	–	–	moderate-affinity ligand	–
hongotoxin 1	–	–	–	–	–	–	–	–	–	–	–	–	–	–	–	–	–	bind specifically
